Structures can show the parent of a compound that is named as a salt.

In the first assay the target is LsrK (Salmonella typhimurium, UniProt Q8ZKQ6). Description: biochemical. Type of assay: biochemical, S. typhimurium.
Chain of LsrK (Q8ZKQ6 whole entry): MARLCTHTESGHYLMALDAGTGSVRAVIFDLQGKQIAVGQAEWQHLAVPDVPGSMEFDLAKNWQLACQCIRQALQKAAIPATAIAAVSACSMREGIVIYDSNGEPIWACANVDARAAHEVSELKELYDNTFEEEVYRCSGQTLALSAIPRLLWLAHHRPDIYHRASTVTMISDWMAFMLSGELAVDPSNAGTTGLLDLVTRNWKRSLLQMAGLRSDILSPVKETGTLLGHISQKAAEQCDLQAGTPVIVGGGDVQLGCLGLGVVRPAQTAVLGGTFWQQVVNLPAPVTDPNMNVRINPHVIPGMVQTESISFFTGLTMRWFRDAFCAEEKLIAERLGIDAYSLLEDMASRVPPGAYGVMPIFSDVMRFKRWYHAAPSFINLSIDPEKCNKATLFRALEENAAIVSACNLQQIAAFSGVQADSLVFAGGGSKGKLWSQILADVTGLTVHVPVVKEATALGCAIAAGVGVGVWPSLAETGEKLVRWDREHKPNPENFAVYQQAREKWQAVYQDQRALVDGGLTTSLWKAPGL
Conditions: not given
Consider `O=C(/C=C/c1ccc(O)c(O)c1)O[C@H](Cc1ccc(O)c(O)c1)C(=O)O` [ROSMARINIC ACID], for which the inhibition at 50 µM came to 2%.
Turning to `CC(C)c1nc(N(C)S(C)(=O)=O)nc(-c2ccc(F)cc2)c1/C=C/[C@@H](O)C[C@@H](O)CC(=O)O` [ROSUVASTATIN CALCIUM], the inhibition at 50 µM was determined as 1%.
On the same count and under the same terms, in the case of `CC[C@@H](C(=O)[C@@H](C)[C@@H](O)[C@H](C)[C@@H]1O[C@@H]([C@@H](CC)C(=O)O)CC[C@@H]1C)[C@H]1O[C@]2(C=C[C@@H](O)[C@]3(CC[C@@](C)([C@H]4CC[C@](O)(CC)[C@H](C)O4)O3)O2)[C@H](C)C[C@@H]1C` [SALINOMYCIN. SODIUM] it was 2%; in that of `C[n+]1cc2c3c(ccc2c2ccc4cc5c(cc4c21)OCO5)OCO3` [SANGUINARINE SULFATE], 84%; in that of `COc1ccc2c(c1)OC/C(=C\c1ccc(OC)c(O)c1)C2=O` [SAPPANONE A DIMETHYL ETHER], 2%.
On the same count and under the same terms, as for `O=C(O)c1cn(-c2ccc(F)cc2)c2cc(N3CCNCC3)c(F)cc2c1=O` [SARAFLOXACIN HYDROCHLORIDE], the figure is 0%; as for `COc1cc2ccc(=O)oc2cc1O` [SCOPOLETIN], 1%.
As to `CO[C@H]1C[C@H](O[C@@H]2/C(C)=C/C[C@@H]3C[C@@H](C[C@]4(CC[C@H](C)[C@@H](C5CCCCC5)O4)O3)OC(=O)[C@@H]3C=C(C)/C(=N/O)[C@H]4OC/C(=C\C=C\[C@@H]2C)[C@]43O)O[C@@H](C)[C@@H]1O` [SELAMECTIN], the inhibition at 50 µM was determined as 0%.
`CC1CCC(NC(=O)N(CCCl)N=O)CC1` (stereo not drawn) [SEMUSTINE]: the inhibition at 50 µM is 0%.
The same measure, in the same setting: as for `O=C(O)c1cc(O)c2c(c1)[C@H]([C@H]1c3cc(C(=O)O)cc(O)c3C(=O)c3c(O[C@@H]4O[C@H](CO)[C@@H](O)[C@H](O)[C@H]4O)cccc31)c1cccc(O[C@@H]3O[C@H](CO)[C@@H](O)[C@H](O)[C@H]3O)c1C2=O` [SENNOSIDE A], the figure is 0%; as for `O=C(O)C1=C[C@@H](O)[C@@H](O)[C@H](O)C1` [SHIKIMIC ACID], 1%.
As to `COc1cc(C2Oc3cc([C@H]4Oc5cc(O)cc(O)c5C(=O)[C@@H]4O)ccc3OC2CO)ccc1O` (stereo partly drawn) [SILIBININ], the inhibition at 50 µM was found to be 27%.
The same measure, in the same setting: as for `CCC(C)(C)C(=O)O[C@H]1C[C@@H](C)C=C2C=C[C@H](C)[C@H](CC[C@@H]3C[C@@H](O)CC(=O)O3)[C@H]21` [SIMVASTATIN], the figure is 3%.
The same measure, in the same setting: as for `CO[C@H]1C[C@@H]2CC[C@@H](C)[C@@](O)(O2)C(=O)C(=O)N2CCCC[C@H]2C(=O)O[C@H]([C@H](C)C[C@@H]2CC[C@@H](O)[C@H](OC)C2)CC(=O)[C@H](C)/C=C(\C)[C@@H](O)[C@@H](OC)C(=O)[C@H](C)C[C@H](C)/C=C/C=C/C=C/1C` [SIROLIMUS], the figure is 4%.
Same read-out and setting: as for `O=C(O)CCCO` [SODIUM OXYBATE], the figure is 1%.
On to `CCCCC(CC)CCC(CC(C)C)OS(=O)(=O)O` (stereo not drawn) [SODIUM TETRADECYL SULFATE], for which the inhibition at 50 µM amounted to 98%.
`C[C@@H]1CC[C@@]2(NC1)O[C@H]1C[C@H]3[C@@H]4CC=C5C[C@@H](O)CC[C@]5(C)[C@H]4CC[C@]3(C)[C@H]1[C@@H]2C` [SOLASODINE]: the inhibition at 50 µM came to 1%.
On the same count and under the same terms, as for `NCCCNCCCCNCCCN` [SPERMINE], the figure is 2%.
On to `COc1cc(C)c2c(c1C=O)Oc1c(c(C)c(O)c3c1C(O)OC3=O)OC2=O` (stereo not drawn) [STICTIC ACID], for which the IC50 worked out at 3 µM and the inhibition at 50 µM was 119%.
For the compound `CC[C@H](/C=C/[C@@H](C)[C@H]1CC[C@H]2[C@@H]3CC=C4C[C@@H](O)CC[C@]4(C)[C@H]3CC[C@]12C)C(C)C` [STIGMASTEROL], the inhibition at 50 µM was determined as 1%.
For the compound `C[C@]12CC[C@H]3[C@@H](CC[C@]4(O)C[C@@H](O)CC[C@]34C=O)[C@@]1(O)CC[C@@H]2C1=CC(=O)OC1` [STROPHANTHIDIN], the inhibition at 50 µM was 0%.
With `OC[C@H]1O[C@H](O[C@]2(CCl)O[C@H](CCl)[C@@H](O)[C@@H]2O)[C@H](O)[C@@H](O)[C@H]1Cl` [SUCRALOSE], the inhibition at 50 µM came out at 3%.
As for `CC(=O)NS(=O)(=O)c1ccc(N)cc1` [SULFACETAMIDE], the inhibition at 50 µM is 0%.
Still for that read-out and setting: as for `COc1ncnc(NS(=O)(=O)c2ccc(N)cc2)c1OC` [SULFADOXINE], the figure is 1%.
On the same count and under the same terms, as for `Cc1ccnc(NS(=O)(=O)c2ccc(N)cc2)n1` [SULFAMERAZINE], the figure is 2%; as for `Cc1nnc(NS(=O)(=O)c2ccc(N)cc2)s1` [SULFAMETHIZOLE], 2%.
On the same count and under the same terms, in the case of `Cc1cc(NS(=O)(=O)c2ccc(N)cc2)no1` [SULFAMETHOXAZOLE] it was 1%; in that of `Nc1ccc(S(=O)(=O)Nc2cnc3ccccc3n2)cc1` [SULFAQUINOXALINE SODIUM], 1%.
Consider `O=C(O)c1cc(/N=N/c2ccc(S(=O)(=O)Nc3ccccn3)cc2)ccc1O` [SULFASALAZINE], for which the inhibition at 50 µM is 5%.
Still for that read-out and setting: as for `O=C1C(CC[S+]([O-])c2ccccc2)C(=O)N(c2ccccc2)N1c1ccccc1` (stereo not drawn) [SULFINPYRAZONE], the figure is 129%.
On the same count and under the same terms, in the case of `CC(=O)N(c1onc(C)c1C)S(=O)(=O)c1ccc(N)cc1` [SULFISOXAZOLE ACETYL] it was 4%.
As for `Cc1noc(NS(=O)(=O)c2ccc(N)cc2)c1C` [SULFISOXAZOLE], the inhibition at 50 µM worked out at 1%.
Still for that read-out and setting: in the case of `CCCCCCCCNC(C)C(O)c1ccc(SC(C)C)cc1` (stereo not drawn) [SULOCTIDIL] it was 0%.
The same measure, in the same setting: in the case of `CCN1CCCC1CNC(=O)c1cc(S(N)(=O)=O)ccc1OC` (stereo not drawn) [SULPIRIDE] it was 83%; in that of `Cc1ccc(C(=O)Nc2ccc(S(=O)(=O)O)c3cc(S(=O)(=O)O)cc(S(=O)(=O)O)c23)cc1NC(=O)c1cccc(NC(=O)Nc2cccc(C(=O)Nc3cc(C(=O)Nc4ccc(S(=O)(=O)O)c5cc(S(=O)(=O)O)cc(S(=O)(=O)O)c45)ccc3C)c2)c1` [SURAMIN], 110%.
Take `CCCCC1(COC(=O)CCC(=O)O)C(=O)N(c2ccccc2)N(c2ccccc2)C1=O` [SUXIBUZONE]: the inhibition at 50 µM worked out at 8%.
Same read-out and setting: as for `Cc1coc2c1C(=O)C(=O)c1c-2ccc2c1CCCC2(C)C` [TANSHINONE IIA], the figure is 50%; as for `CC[C@H]1OC(=O)[C@H](C)C(=O)[C@H](C)[C@@H](O[C@@H]2O[C@H](C)C[C@H](N(C)C)[C@H]2O)[C@](C)(OC)C[C@@H](C)C(=O)[C@H](C)[C@H]2N(CCCCn3cnc(-c4cccnc4)c3)C(=O)O[C@]12C` [TELITHROMYCIN], 7%.
For the compound `COc1cc([C@@H]2c3cc4c(cc3[C@@H](O[C@@H]3O[C@@H]5CO[C@@H](c6cccs6)O[C@H]5[C@H](O)[C@H]3O)[C@H]3COC(=O)[C@H]23)OCO4)cc(OC)c1O` [TENIPOSIDE], the inhibition at 50 µM is 2%.
`COc1cc2nc(N3CCN(C(=O)C4CCCO4)CC3)nc(N)c2cc1OC` (stereo not drawn) [TERAZOSIN HYDROCHLORIDE]: the inhibition at 50 µM turned out to be 1%.
For `CN(C/C=C/C#CC(C)(C)C)Cc1cccc2ccccc12` [TERBINAFINE HYDROCHLORIDE], the inhibition at 50 µM stood at 1%.
As to `N#Cc1c(Cl)c(Cl)c(Cl)c(C#N)c1Cl` [TETRACHLOROISOPHTHALONITRILE], the IC50 stood at 9 µM and the inhibition at 50 µM is 138%.
In the case of `CN(C)[C@@H]1C(O)=C(C(N)=O)C(=O)[C@@]2(O)C(O)=C3C(=O)c4c(O)cccc4[C@@](C)(O)[C@H]3C[C@@H]12` [TETRACYCLINE HYDROCHLORIDE], the inhibition at 50 µM worked out at 114%.
The same measure, in the same setting: in the case of `O=C(O[C@@H]1Cc2c(O)cc(O)cc2O[C@@H]1c1cc(O)c(=O)c2c(O)c(O)cc([C@H]3Oc4cc(O)cc(O)c4C[C@H]3O)c2c1)c1cc(O)c(O)c(O)c1` [THEAFLAVIN MONOGALLATES] it was 129%; in that of `O=c1c(O)cc([C@H]2Oc3cc(O)cc(O)c3C[C@H]2O)cc2c([C@H]3Oc4cc(O)cc(O)c4C[C@H]3O)cc(O)c(O)c12` [THEAFLAVIN], 133%; in that of `CCNC(=O)CC[C@H](N)C(=O)O` [THEANINE], 1%.
`Cn1cnc2c1c(=O)[nH]c(=O)n2C` [THEOBROMINE]: the inhibition at 50 µM was determined as 0%.
Turning to `c1ccc2[nH]c(-c3cscn3)nc2c1` [THIABENDAZOLE], the inhibition at 50 µM was determined as 5%.
Still for that read-out and setting: in the case of `Nc1nc2nc[nH]c2c(=S)[nH]1` [THIOGUANINE] it was 1%.
For `S=P(N1CC1)(N1CC1)N1CC1` [THIOTEPA], the inhibition at 50 µM was 14%.
On the same count and under the same terms, in the case of `CN(C)C(=S)SSC(=S)N(C)C` [THIRAM] it was 104%.
Turning to `COc1ccc(CN(CCN(C)C)c2ncccn2)cc1` [THONZYLAMINE HYDROCHLORIDE, reference compound], it took 24 µM to reach half-maximal inhibition (IC50) and the inhibition at 50 µM was determined as 112%.
For `CC1=CC(=O)C(C(C)C)=CC1=O` [THYMOQUINONE], the inhibition at 50 µM came out at 2%.

The same assay, now with this note: 50 µM.
Take `CC(C)CC(N(C)C)C1(c2ccc(Cl)cc2)CCC1.Cl` (stereo not drawn) [SIBUTRAMINE HYDROCHLORIDE]: the “Inhibition (%)” value was determined as 1.
Still for that read-out and setting: in the case of `Cc1c[nH]c2ccccc12` [SKATOLE] it was 1.
Turning to `CC(C)=CCC/C(C)=C/CC/C(C)=C/CC/C(C)=C/CC/C(C)=C/CC/C(C)=C/CC/C(C)=C/CC/C(C)=C/CC/C(C)=C/CO` [SOLANESOL], the “Inhibition (%)” value came to 1.
As for `CC1=CC(=O)[C@H]2C(C)(C)CCC[C@]2(C)[C@@]1(O)CCc1ccoc1` [SOLIDAGENONE], the “Inhibition (%)” value is 0.
As for `C1CCN2C[C@@H]3C[C@@H](CN4CCCC[C@@H]34)[C@H]2C1.I` [SPARTEINE HYDROIODIDE], the “Inhibition (%)” value is given as 1.
On the same count and under the same terms, in the case of `Cc1c(S(=O)(=O)[O-])oc2c1C(=O)C(=O)c1c-2ccc2c1CCCC2(C)C.[Na+]` [TANSHINONE IIA SULFONATE SODIUM] it was 55; in that of `CC(C)(C)NCC(O)c1cc(O)cc(O)c1.CC(C)(C)NCC(O)c1cc(O)cc(O)c1.O=S(=O)(O)O` (stereo not drawn) [TERBUTALINE HEMISULFATE], 1.
Same read-out and setting: in the case of `Cl.c1ccc(C2CN3CCSC3=N2)cc1` (stereo not drawn) [TETRAMIZOLE HYDROCHLORIDE] it was 22; in that of `O=c1cccc2n1C[C@@H]1C[C@H]2CN2CCCC[C@H]12.[O-][Cl+3]([O-])([O-])O` [THERMOPSINE PERCHLORATE], 0.
In the case of `O=C(O)CCCCC1CCSS1` (stereo not drawn) [THIOCTIC ACID], the “Inhibition (%)” value was found to be 170%.

(Values after PMC6627609, “Targeting Quorum Sensing: High-Throughput Screening to Identify Novel LsrK Inhibitors” (International Journal of Molecular Sciences, 2019).)
